Data published in US5519138A, “Phenylalkyl derivatives, with pharmaceutical activity” (Dr. Karl Thomae GmbH, priority 1991, dated 1996).
Where two headings read alike, the source gives them in different places.

Molecular target: T1, Angiotensin II-receptor (Rattus norvegicus, UniProt P25095)
T1 construct: The tissue (rats lung) is homogenised in Tris-buffer; from tissue; host or cells: rat lung homogenate (washed 20,000x g pellet)
T1 sequence (P25095 1-359): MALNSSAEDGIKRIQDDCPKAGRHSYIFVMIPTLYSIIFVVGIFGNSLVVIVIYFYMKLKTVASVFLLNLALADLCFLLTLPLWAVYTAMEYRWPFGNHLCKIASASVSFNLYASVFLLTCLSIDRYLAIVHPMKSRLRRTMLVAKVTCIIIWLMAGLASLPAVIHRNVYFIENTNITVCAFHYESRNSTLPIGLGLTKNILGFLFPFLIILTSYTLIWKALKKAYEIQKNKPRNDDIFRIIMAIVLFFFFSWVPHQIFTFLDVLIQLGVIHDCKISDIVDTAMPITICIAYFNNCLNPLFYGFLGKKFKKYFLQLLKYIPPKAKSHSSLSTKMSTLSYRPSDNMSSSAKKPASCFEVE
Assay: Angiotensin II-receptor bonding
Type: binding
Method: Description of method: Angiotensin II-receptor bonding
The tissue (rats lung) is homogenised in Tris-buffer (50 mMol Tris, 150 mMol NaCl, 5 mMol EDTA, pH 7.40) and centrifuged twice for 20 minutes at 20,000x g. The finished pellets are resuspended in incubating buffer (50 mMol Tris, 5 mMol MgCl2, 0.2% BSA, pH 7.40) 1:75, based on the moist weight of the tissue. Each 0.1 ml of homogenate is incubated for 60 minutes at 37° C. with 50 pM [^125 I]-angiotensin II (NEN, Dreieich, FRG) with increasing concentrations of the test substance in a total volume of 0.25 ml. Incubation is ended by rapid filtration through glass fibre filter mats. The filters are each washed with 4 ml of ice cold buffer (25 mMol Tris, 2.5 mMol MgCl2, 0.1% BSA, pH 7.40). The bound radioactivity is measured using a gamma-counter. The corresponding IC50 value is obtained from the dose-activity curve.
In the test described, substances A to I show the following IC50 values: […]

[1] = rats lung homogenate, 50 pM [^125 I]-angiotensin II, 60 minutes at 37° C., pH 7.40, read-out: IC50

| Compound | IC50 [1] | IC50 |
| --- | --- | --- |
| CCCCc1nc2ccc(N(C)C(=O)CC)cc2n1Cc1ccc(OC(CC(C)C)C(=O)O)cc1 (stereo not drawn) [Substance G, 2-n-Butyl-6-(N-propionyl-methylamino)-1-[4-[(1-carboxy-3-methyl)butyloxy]benzyl]benzimidazole] | 0.83 µM | – |
| CCCc1nc2c(C)cc(-c3nc4ccccc4n3C)cc2n1Cc1ccc(OC(c2ccccc2)c2nnn[nH]2)cc1 (stereo not drawn) [Substance F, 2-n-Propyl-4-methyl-6-(1-methyl-benzimidazol-2-yl)-1-[4-[α-(1H-tetrazol-5-yl)benzyloxy]benzyl]benzimidazole] | 0.012 µM | – |
| CCCCc1nc2ccc(NC(=O)N(C)C)cc2n1Cc1ccc(OC(C(=O)O)c2ccccc2)cc1 (stereo not drawn) [Substance B, 2-n-Butyl-1-[4-[(α-carboxy)benzyloxy]benzyl]-6-dimethylaminocarbonylamino-benzimidazole] | 0.008 µM | – |
| Cc1cc(OCc2ccc(OC(C(=O)O)c3ccccc3)cc2)c2ccccc2n1 (stereo not drawn) [Substance D, 2-Methyl-4-[4'-[(α-carboxy)benzyloxy]benzyloxy]quinoline] | 2 µM | – |
| CCCCc1nc2ccccc2n1Cc1ccc(NC(c2ccccc2)P(=O)(O)OCC)cc1 (stereo not drawn) [Substance I, 2-n-Butyl-1-[4-[α-(O-ethyl-phosphono)benzylamino]benzyl]benzimidazole] | – | 0.56 µM |
| CCCc1nc2c(C)cc(-c3nc4ccccc4n3C)cc2n1Cc1ccc(OC(C(=O)O)c2ccccc2)cc1 (stereo not drawn) [Substance C, 2-n-Propyl-6-(1-methyl-benzimidazol-2-yl)-4-methyl-1-[4-[(α-carboxy)benzyloxy]benzyl]benzimidazole] | 0.004 µM | – |
| CCCc1nc2c(C)cccc2n1Cc1ccc(OC(C(=O)O)c2ccccc2)cc1 (stereo not drawn) [Substance A, 2-n-Propyl-4-methyl-1-[4-[(α-carboxy)benzyloxy]benzyl]benzimidazole] | 0.076 µM | – |
| CCCCc1nc2cc(N3CCCN(Cc4ccccc4)C3=O)c(C)nc2n1Cc1ccc(OC(c2ccccc2)c2nnn[nH]2)cc1 (stereo not drawn) [Substance H, 2-n-Butyl-5-methyl-6-(3-benzyl-3,4,5,6-tetrahydro-2(1H)-pyrimidinon-1-yl)-3-[4-[α-(1H-tetrazol-5-yl)benzyloxy]benzyl]imidazo[4,5-b]pyridine] | 0.027 µM | – |
| CCCCc1nc2c(C)cccc2c(=O)n1Cc1ccc(OC(C(=O)O)c2ccccc2)cc1 (stereo not drawn) [Substance E, 2-n-Butyl-8-methyl-3-[4-[(α-carboxy)benzyloxy]benzyl]-quinazolin-4-one-semihydrate] | 2 µM | – |
